The target in one assay is OR10/OR7 (Anopheles gambiae, UniProt B5U0U7+Q7QCC7). The experiment in a line: Ca2+-imaging of stable HEK293T cell line OR10/OR7. It is filed as cell-based. The conditions noted are these: for inhibition at 4 µM: HEK-293T, compound applied at 4 μM, read-out: Percent Inhibition OR10 OR7; for IC50: Table B, read-out: IC50 OR10. Summed up: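 Stable HEK293T line co-expressing OR10/OR7, plated 2 days on poly-D-lysine, loaded with Ca-4 dye 1.5 hr at room temperature. Compounds premixed into odorant in HBSS and applied on FDSS6000. Ca2+ rise followed by fluorescence at 525 nm (excitation 485 nm).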

For the next assay, the target named is T1, mOREG (Mus musculus, UniProt Q920P2).
T1 sequence (Q920P2 1-313): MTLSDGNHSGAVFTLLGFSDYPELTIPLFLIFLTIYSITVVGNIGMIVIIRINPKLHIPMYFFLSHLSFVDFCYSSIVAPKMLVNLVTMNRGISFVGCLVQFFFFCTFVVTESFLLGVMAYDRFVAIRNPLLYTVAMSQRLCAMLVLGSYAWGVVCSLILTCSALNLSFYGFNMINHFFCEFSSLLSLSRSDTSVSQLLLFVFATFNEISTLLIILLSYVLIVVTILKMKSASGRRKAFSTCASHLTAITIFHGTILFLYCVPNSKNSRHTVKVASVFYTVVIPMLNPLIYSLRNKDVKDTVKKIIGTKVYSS
The experiment in a line: Ca2+-imaging, control receptor mOREG. The conditions noted are these: for IC50: Table B; for inhibition at 4 µM: compound applied at 4 μM, read-out: Percent Inhibition mOREG. Type of assay: cell-based. The procedure, abridged:
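Fluorescent Ca2+ responses (ex 485/em 525 nm) measured in real time after odorant application, with small compounds transferred into the HBSS odorant solutions beforehand. Cells were seeded on poly-D-lysine 2 days ahead and dye-loaded (Ca-4, 1.5 hr, room temperature); controls were HBSS buffer and ligand.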

As a reminder, the inhibition is the share of the control response that was lost under treatment. By IC50 is commonly meant the concentration needed to halve the response being measured.

OR10/OR7, sequence (Q7QCC7 whole entry): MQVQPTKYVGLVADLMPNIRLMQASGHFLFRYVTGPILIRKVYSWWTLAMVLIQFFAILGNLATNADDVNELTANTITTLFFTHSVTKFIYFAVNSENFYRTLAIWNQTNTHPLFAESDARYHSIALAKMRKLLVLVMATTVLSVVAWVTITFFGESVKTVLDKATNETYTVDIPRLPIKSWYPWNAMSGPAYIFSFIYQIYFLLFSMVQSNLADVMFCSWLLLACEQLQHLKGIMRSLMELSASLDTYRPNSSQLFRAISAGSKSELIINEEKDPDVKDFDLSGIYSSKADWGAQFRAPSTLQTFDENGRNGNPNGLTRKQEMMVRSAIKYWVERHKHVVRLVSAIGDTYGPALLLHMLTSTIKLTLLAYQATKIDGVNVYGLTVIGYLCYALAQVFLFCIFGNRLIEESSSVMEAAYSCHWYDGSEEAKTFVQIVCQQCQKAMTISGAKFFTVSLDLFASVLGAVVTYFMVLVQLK
OR10/OR7, sequence (B5U0U7 entry or part of it): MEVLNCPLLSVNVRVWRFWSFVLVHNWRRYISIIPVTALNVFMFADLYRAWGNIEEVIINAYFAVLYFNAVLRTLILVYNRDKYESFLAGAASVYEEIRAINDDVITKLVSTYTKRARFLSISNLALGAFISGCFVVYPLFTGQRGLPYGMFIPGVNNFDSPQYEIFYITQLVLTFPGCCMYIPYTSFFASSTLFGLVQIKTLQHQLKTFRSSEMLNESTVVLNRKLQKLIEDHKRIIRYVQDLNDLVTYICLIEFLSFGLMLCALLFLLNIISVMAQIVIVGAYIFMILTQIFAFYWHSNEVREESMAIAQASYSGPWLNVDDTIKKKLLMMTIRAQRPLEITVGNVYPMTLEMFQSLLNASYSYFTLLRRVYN

Regarding `CCN(CC)C(=O)Oc1ccc2c(ccn2Cc2cccc(C)c2)c1NC(=O)[C@H](C)OC(C)=O` [RU-0075468], at OR10/OR7, the inhibition at 4 µM lay within 26 to 50% and the IC50 is less than 100 nM. Also, on mOREG, the IC50 is less than 100 nM and the inhibition at 4 µM was more than 75%.

As to `Cc1ccc(CN(Cc2ccc(F)cc2)C(=O)CN(C(=O)NC(C)(C)C)C2CC2)s1` [RU-0052360], on OR10/OR7, the inhibition at 4 µM was more than 75% and the IC50 was more than 1000 nM. The inhibition at 4 µM at mOREG was 26 to 50%.

As for `CCOc1ccccc1C(=O)NNC(=O)COc1cc(C)cc(C)c1` [RU-0023245], at OR10/OR7, the inhibition at 4 µM is 26 to 50% and the IC50 was more than 1000 nM. For the same molecule, the inhibition at 4 µM on mOREG was in the range of 26 to 50%.

Consider `COc1ccc(N2CCN(C(=O)C3CC=CCC3C(=O)NC(c3ccccc3)c3ccccn3)CC2)cc1` (stereo not drawn) [RU-0026507], for which the inhibition at 4 µM at OR10/OR7 and at mOREG was less than 25% each time.

Turning to `COc1ccc(N2CCN(C(=O)C3CC=CCC3C(=O)NCCCCc3ccccc3)CC2)cc1` (stereo not drawn) [RU-0026167], the inhibition at 4 µM on OR10/OR7 and on mOREG was 26 to 50% throughout.

In the case of `COc1ccc(-c2nnc(SCc3ccc(C#N)cc3)n2-c2ccc(C)cc2)cc1` [RU-0046426], the inhibition at 4 µM at OR10/OR7 was 26 to 50%. Further, on mOREG, the IC50 was more than 1000 nM and the inhibition at 4 µM is 51 to 74%.

`COc1ccc(C(=O)c2ccccc2)c(O)c1O` [RU-0001617]: on OR10/OR7, the inhibition at 4 µM was in the range of 51 to 74% and the IC50 was less than 100 nM. The inhibition at 4 µM on mOREG was less than 25%.

Turning to `COCCNC(=O)c1ccc(CSc2nnc(-c3ccc(C)cc3)n2-c2ccccc2F)cc1` [RU-0051652], the inhibition at 4 µM at OR10/OR7 was 26 to 50%; on mOREG, less than 25%.

Take `CCOCCCN(CC(=O)N(Cc1ccc2c(c1)OCO2)Cc1sccc1C)C(=O)NC(C)(C)C` [RU-0052340]: on OR10/OR7, the inhibition at 4 µM was 51 to 74% and the IC50 was less than 100 nM. Also, the inhibition at 4 µM at mOREG is 26 to 50%.

Turning to `COc1ccccc1N1CCN(C(=O)c2cc3n(n2)CCN(Cc2c(F)cccc2Cl)C3=O)CC1` [RU-0043595], the inhibition at 4 µM on OR10/OR7 was less than 25%. At mOREG, the IC50 was more than 1000 nM and the inhibition at 4 µM was 51 to 74%.

For the molecule `Cc1cc(C)c2c(c1C(=O)N1CCC3(CC1)C(=O)NCN3c1ccccc1)CC(C)(C)C2=O` [RU-0025771], the inhibition at 4 µM on OR10/OR7 and on mOREG was 26 to 50% each time.

Turning to `COCCCN(CC(=O)N1CCc2sccc2C1COc1cccc(OC)c1)C(=O)Cc1ccccc1` (stereo not drawn) [RU-0036264], the inhibition at 4 µM on OR10/OR7 and on mOREG was less than 25% throughout.

As to `Cc1ccc(-n2nc(C)c(CCC(=O)N3CCc4ccccc4C3)c2C)cc1Cl` [RU-0026074], the results for the inhibition at 4 µM at OR10/OR7 and at mOREG were 26 to 50% and less than 25%, respectively.

With `COc1nc(NC(C)C)nc(NC(C)C)n1` [RU-0001534], the inhibition at 4 µM at OR10/OR7 and at mOREG was less than 25% each time.

Turning to `CC(NCc1ccccc1)c1nc2ccccc2c(=O)n1-c1ccc(Cl)cc1` (stereo not drawn) [RU-0072535], the values for the inhibition at 4 µM at OR10/OR7 and on mOREG were less than 25% and 26 to 50%, respectively.

On to `Cc1ccc(CN(CCc2ccccc2)C(=O)CN(C(=O)NC(C)(C)C)C(C)C)o1` [RU-0072008], for which, at OR10/OR7, the inhibition at 4 µM was more than 75% and the IC50 is less than 100 nM. Moreover, the inhibition at 4 µM on mOREG lay in the range of 26 to 50%.

With `CCOC(=O)C(c1ccc(OC)c(OC)c1)C1C=CC(NC(=O)c2ccc3c(c2)OCO3)C1` (stereo not drawn) [RU-0049030], the inhibition at 4 µM on OR10/OR7 is 26 to 50%; on mOREG, less than 25%.

In the case of `CC(NC(=O)c1cc2n(n1)CCN(Cc1c(Cl)cccc1Cl)C2=O)c1ccccc1` (stereo not drawn) [RU-0045115], the inhibition at 4 µM at OR10/OR7 was less than 25%; on mOREG, 26 to 50%.

Consider `COCCCN(CC(=O)N1CCc2sccc2C1c1ccc(OC)cc1)C(=O)C(C)(C)CCl` (stereo not drawn) [RU-0069950], for which, at OR10/OR7, the inhibition at 4 µM is more than 75% and the IC50 is less than 100 nM. At mOREG, the half-inhibitory concentration (IC50) is more than 1000 nM and the inhibition at 4 µM lay within 51 to 74%.

`CCCCc1nc(CN2CCc3c([nH]c4ccccc34)C2c2cccc(OC)c2OC)c[nH]1` (stereo not drawn) [RU-0031879]: the inhibition at 4 µM on OR10/OR7 is less than 25%; at mOREG it was 26 to 50%.

On to `O=C1CN(S(=O)(=O)c2c(F)cc(F)cc2F)CC2c3cccc(F)c3CCN12` (stereo not drawn) [RU-0076832], for which the inhibition at 4 µM on OR10/OR7 and on mOREG was 26 to 50% throughout.

For `COc1cc(OC)cc(C2NC(=O)N(C)C3=C2C(=O)N(C2CCCCC2)C3)c1` (stereo not drawn) [RU-0047750], the inhibition at 4 µM was more than 75% on OR10/OR7 and less than 25% at mOREG. The IC50 on OR10/OR7 was less than 100 nM.

On to `COc1nc(OCC#N)nc(N2CCCCC2)n1` [RU-0006256], for which the inhibition at 4 µM was 51 to 74% at OR10/OR7 and less than 25% on mOREG. The concentration for half-maximal inhibition (IC50) at OR10/OR7 was more than 1000 nM.

For `CCOC(=O)C(c1cccc(OC)c1)C1C=CC(NC(=O)c2cccs2)C1` (stereo not drawn) [RU-0074560], the inhibition at 4 µM on OR10/OR7 and on mOREG was less than 25% each time.

Take `COC(=O)C(Cc1ccccc1)NC(=O)C1CC1(c1ccccc1)c1ccccc1` (stereo not drawn) [RU-0028029]: the figures for the inhibition at 4 µM on OR10/OR7 and at mOREG were 26 to 50% and less than 25%, respectively.

Turning to `CN(Cc1ccccc1)C(=O)CCC1CCN(C(=O)CCOc2ccccc2)CC1` [RU-0028727], on OR10/OR7, the inhibition at 4 µM lay in the range of 51 to 74% and the IC50 is more than 1000 nM. Also, on mOREG, the IC50 was more than 1000 nM and the inhibition at 4 µM is 51 to 74%.

As for `CN(C)c1nc(N(C)C)nc(N(C)C)n1` [RU-0000619], the inhibition at 4 µM at OR10/OR7 is less than 25%; on mOREG it was 51 to 74%. At mOREG, this molecule had an IC50 of more than 1000 nM.

In the case of `COCCCN(CC(=O)N1CCc2sccc2C1COc1cccc(OC)c1)C(=O)c1ccccc1OC` (stereo not drawn) [RU-0036294], on OR10/OR7, the inhibition at 4 µM was 51 to 74% and the IC50 is more than 1000 nM. Besides, at mOREG, the inhibition at 4 µM was in the range of 26 to 50%.

For `C=C[C@@](C)(O)CCC1C(=C)CCC2[C@@](C)(CO)CCC[C@]12C` (stereo partly drawn) [RU-0001327], on OR10/OR7, the inhibition at 4 µM was in the range of 51 to 74% and the IC50 was more than 1000 nM. At mOREG, the inhibition at 4 µM fell in the range of 26 to 50%.

In the case of `COCCN(Cc1cc(Cl)ccc1OS(=O)(=O)c1ccc(F)cc1)C(=O)C1CCC1` [RU-0035287], the inhibition at 4 µM is less than 25% on OR10/OR7 and 26 to 50% on mOREG.

(Values after patent US20130324522A1, “INSECT ODORANT RECEPTOR ANTAGONISTS” (THE ROCKEFELLER UNIVERSITY, priority 2010, published 2013).)
